Assays:
[1] = test system: LPS-TRAPed population in the cNST; assay: Blood cytokine levels after LPS with chemogenetic (DREADD) activation of LPS-TRAPed cNST neurons; type: in vivo
Description: FIG. 12 illustrates the effect of neuronal stimulation in the caudal nucleus of the solitary tract on the immune response. […] Neuronal populations were chemogenetically activated with designer receptor exclusively activated by a designer drug (DREADD) while the animal is given LPS and cytokine levels in the blood were measured. In the control animals, LPS induced the strong release of pro-inflammatory TNFa, reaching 200 pg/ml in the peripheral blood. When this brainstem neuronal population was activated with DREADD, there was a remarkable suppression of pro-inflammatory cytokine release, resulting in 90% reduction in the TNFa in the blood. The same results were obtained for another proinflammatory cytokine, IL-6. In addition to suppressing the release of pro-inflammatory cytokines, activation of this neuronal population markedly increase the release of the anti-inflammatory cytokine, IL-10. Thus, this brain circuit triggers a strong anti-inflammatory response while suppressing pro-inflammatory cytokines. Note that under normal conditions (control) the immune insult triggers a very large induction of pro-inflammatory cytokines (TNFa; left panels), and this induction is suppressed by activation of the cNST neurons (compare bars). […]
FIG. 19 illustrates that activating cNST-responsive neurons dramatically suppresses inflammatory responses. […] These neurons were artificially activated after LPS using a synthetic drug, CNO, and then cytokine levels in the circulation were analyzed in response to LPS.
It was shown that neurons in the caudal nucleus of the solitary tract (cNST) in the brainstem are activated by peripheral (intraperitoneal) administration of LPS (lipopolysaccharide), a potent inducer of inflammatory responses (FIG. 5). […] Next, to uncover the role of these cNST neurons in immune responses, a chemogenetic silencer was introduced by genetic Trapping, and the effect of silencing these cNST neurons in the emergence of LPS-induced inflammatory responses was evaluated. […]

vagal sensory neurons = assay: In-vivo calcium imaging (GCaMP6s) of nodose ganglion after intraperitoneal cytokine; conditions: intraperitoneal injection; no response to saline or glucose
Description: FIG. 7 illustrates a subset of neurons in the nodose ganglion that respond to pro-inflammatory cytokines. Calcium responses in vagal sensory neurons expressing the genetically encoded fluorescent calcium indicator GCaMP6s were imaged while administering cytokines intraperitoneally. The platform was modified to image the response of vagal sensory neurons to cytokines. The cytokine was administered via intraperitoneal injection and calcium activity in the nodose ganglion was monitored. Heat maps depicting z-score-normalized fluorescence traces from vagal neurons identified as responders of proinflammatory cytokine (TNFa). Neural activity was detected using an in-vivo calcium imaging platform with genetically encoded calcium indicator GCaMP6 expressed in all vagal sensory neurons. Each trial represents the activity of a single cell. […]
FIG. 8 illustrates a subset of neurons in the nodose ganglion that respond to anti-inflammatory cytokines. Heat maps depicting z-score-normalized fluorescence traces from vagal neurons identified as responders of anti-inflammatory cytokines (IL-4). […] Neural activity was detected using an in-vivo calcium imaging platform with genetically encoded calcium indicator GCaMP6 expressed in all vagal sensory neurons. […] The cytokine was administered via intraperitoneal injection and calcium activity in the nodose ganglion was monitored. […]

[2] = test system: caudal nucleus of the solitary tract (cNST); assay: TRAP activity-based labelling of LPS-responsive neurons; type: in vivo; conditions: LPS-treated vs saline treated animals
Source text: The activity based labelling strategy, TRAP, was used to identify and access neuronal populations activated during LPS induced inflammation. Neurons TRAPed by LPS (right) but not saline control (left) are seen in the cNST (circled area). For each condition, a representative image from N>=3 animals is shown. Scale bar: 500 μm.
It was shown that neurons in the caudal nucleus of the solitary tract (cNST) in the brainstem are activated by peripheral (intraperitoneal) administration of LPS (lipopolysaccharide), a potent inducer of inflammatory responses (FIG. 5). […] In other words, the brain monitors and modulates immune responses in the body. […] Next, to uncover the role of these cNST neurons in immune responses, a chemogenetic silencer was introduced by genetic Trapping, and the effect of silencing these cNST neurons in the emergence of LPS-induced inflammatory responses was evaluated.

[3] = test system: caudal nucleus of the solitary tract (cNST); assay: Fos induction in the brain after peripheral LPS immune challenge; type: in vivo; conditions: LPS stimulus vs saline control; c-fos as proxy for neural activity
Source text: Peripheral immune challenge evokes brain activities. LPS was used to induce an innate immune response and the brain was examined for the induction of c-fos as a proxy for neural activity. […] When the body experiences bacterial infections, the bacterial membrane component lipopolysaccharide (LPS) triggers strong innate immune response. LPS (right) but not saline control (left) strongly activates cNST (circled area). For each condition, a representative image from N>=3 animals is shown. Scale bar: 100 μm. Strong bilateral c-fos labeling was detected in the caudal nucleus of the solitary tract (cNST) in the brainstem.
A brainstem circuit that functions as a conduit to convey peripheral immune information to the brain was identified. […] Using an activity marker (cFos induction), it was determined that a selective population of neurons in the brain are activated in response to administration of a peripheral immune insult.
It was shown that neurons in the caudal nucleus of the solitary tract (cNST) in the brainstem are activated by peripheral (intraperitoneal) administration of LPS (lipopolysaccharide), a potent inducer of inflammatory responses (FIG. 5). […] Next, to uncover the role of these cNST neurons in immune responses, a chemogenetic silencer was introduced by genetic Trapping, and the effect of silencing these cNST neurons in the emergence of LPS-induced inflammatory responses was evaluated.

[4] = TRAPed cNST neurons activated after LPS, cytokine levels in the circulation

With `C[N+]1([O-])CCN(C2=Nc3cc(Cl)ccc3Nc3ccccc32)CC1` [CNO, clozapine N-oxide] the “levels of anti-inflammatory cytokines” value [1, 4] was “very large increase” and the “release of pro-inflammatory cytokines” value [1, 4] was “dramatic suppression”.

With TNFa the “calcium activity in a subset of vagal sensory neurons” value (vagal sensory neurons) was “robust activity”.

lipopolysaccharide [LPS] was tested, and the “labelling of cNST with fluorescence reporter (tdTomato)” value [2] was “Strong labelling”, the “TNFa in the peripheral blood” value ([1]; control animals given LPS, no neuronal activation) was 200 pg/mL and the “Fos induction in the cNST” value [3] was “Strong Fos induction”.

B1: IL-4: anti-inflammatory cytokine administered intraperitoneally (protein, UniProt P05112 25-153, looked up)
Interleukin-4: HKCDITLQEIIKTLNSLTEQKTLCTELTVTDIFAASKNTTEKETFCRAATVLRQFYSHHEKDTRCLGATAQQFHRHKQLIRFLKRLDRNLWGLAGLNSCPVKEANQSTLENFLERLKTIMREKYSKCSS
For B1, the “calcium activity in a subset of vagal sensory neurons” value (vagal sensory neurons) was “robust activity”.

Reference: patent US20260041796A1, “REGULATION OF IMMUNE RESPONSES THROUGH SELECTIVE NEURAL ACTIVATION” (The Trustees of Columbia University in the City of New York, priority 2021, published 2026)
